{"source": "patent EP1964550A1", "about": "“Glucocorticoid-nitrooxyderivative compositions” (NicOx S.A., priority 2007, dated 2008)", "origin": "cited, not measured here", "test_system": "irritant acute dermatitis", "conditions": "oedema formation and recruitment of leukocytes evaluated; compared with parent compound hydrocortisone", "data": [{"smiles": "C[C@]12CCC(=O)C=C1CC[C@@H]1[C@@H]2[C@@H](O)C[C@@]2(C)[C@H]1CC[C@]2(O)C(=O)COC(=O)c1ccc(CO[N+](=O)[O-])cc1", "note": "[hydrocortisone 21-[4'-(nitrooxymethyl)benzoate]]", "values": [{"measurement": "anti-inflammatory activity", "result": "higher anti-inflammatory activity than the parent compound hydrocortisone"}]}]}
